Values joined by “and” are separate entries in the source; they are usually repeats but may differ in a detail not shown here. Equal values may be shown once.
How the values were obtained:
[1] = tested on: RAT-1 fibroblasts transfected with α1B -ADR mutant; assay: Focus formation in RAT-1 fibroblasts transfected with α1B-ADR mutant c-DNA; type: cell-based
Experimental: Transfection was carried out as follows: RAT-1 fibroblasts were seeded at a density of 2×10^5 cells in Dulbecco's modified Eagle's medium (DMEM) (Gibco) containing 5% fetal bovine serum (FBS) in 100 mm dishes. Cells were grown overnight, then transfected with 10 μg of DNA (expression vector alone [pZIP-NeoSV(X)1] or containing the α1B-ADR, α1B -ADR mutant [discussed in Example 3 below] or activated Ha-ras c-DNAs) by calcium phosphate precipitation (B. Cullen, Methods Enzymol. 152, 684 (1987)). The α1B -ADR used herein was the hamster α1B -ADR described in S. Cotecchia et al., Proc. Natl. Acad. Sci. USA 85, 7159-7163 (1988). After 16 hours, the DNA precipitate was removed, the cells washed and grown for 24 hours in complete medium. Cells were split 1:5, allowed to attach overnight and then cultured in DMEM with 5% FBS alone, supplemented with 10 μM norepinephrine (NE) or G418 (300 μg/ml). Dishes were supplemented with NE daily, and fed every 3 days with fresh medium.
^1 Cells were cultured for 3 weeks in the presence or absence of 10
μM norepinephrine (NE), supplemented daily, in medium containing 5%
FBS. The number of transformed foci were scored after 4 weeks of culture.
Results represent the average duplicate determinations from two
independent experiments which agreed within 25%; nd = not determined. […]
growth, the number of foci was scored. […]

α1B ADR = target: T1, α1B ADR (Mesocricetus auratus, UniProt P18841); assay: NE stimulated PI hydrolysis in RAT-1 cell lines expressing the α1B ADR; type: cell-based, hamster
T1 construct: expressed in transfected cells; host or cells: RAT-1 fibroblasts (vector pZIP-NeoSV(X)1), focus-derived, G418-selected lines
T1 sequence (P18841 1-515): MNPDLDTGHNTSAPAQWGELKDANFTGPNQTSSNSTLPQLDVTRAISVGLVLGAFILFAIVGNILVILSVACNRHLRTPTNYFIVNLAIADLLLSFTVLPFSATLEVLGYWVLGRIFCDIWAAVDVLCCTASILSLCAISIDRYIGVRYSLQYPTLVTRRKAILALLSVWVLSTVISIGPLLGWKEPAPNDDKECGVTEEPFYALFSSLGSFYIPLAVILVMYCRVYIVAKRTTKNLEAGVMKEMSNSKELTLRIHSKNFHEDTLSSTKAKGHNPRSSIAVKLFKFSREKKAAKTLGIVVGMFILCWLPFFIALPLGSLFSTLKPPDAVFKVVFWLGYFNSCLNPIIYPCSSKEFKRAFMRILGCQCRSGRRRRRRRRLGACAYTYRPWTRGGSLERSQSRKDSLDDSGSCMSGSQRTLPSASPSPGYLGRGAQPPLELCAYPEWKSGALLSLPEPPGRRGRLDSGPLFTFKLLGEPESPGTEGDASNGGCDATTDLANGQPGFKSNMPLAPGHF
Experimental: In Table 3, RAT-1 fibroblast cell lines transfected with expression vector alone or derived from transformed foci (α1B ADR or α1B ADR mutant) were selected with G418 (300 μg/ml). Ligand binding was performed on membranes prepared from two clones of each in accordance with known techniques (S. Cotecchia et al., Life Sci. 37, 2389 (1986)). For saturation binding analysis, [^125 ] HEAT concentrations ranged from 10 to 500 pM, nonspecific binding was determined using 1 μM prazosin; in competition experiments, the radioligand concentration was 100 pM. Ligand binding parameters were determined using computerized iterative nonlinear regression analysis (P. Munson, Methods in Enzymol. 92, 5432 (1983)). For assessment of receptor coupling to PI hydrolysis, cells were plated in 30 mm dishes, and labeled overnight with 3 μCi/ml of myo-[2-^3 II(N)]-inositol (1Ci=37 GBq; NEN Research Products) in DMEM containing 3.3% FBS in accordance with known techniques (S. Cotecchia et al., Proc. Natl. Acad. Sci. USA 87, 2896 (1990)). After 40 minute stimulation of cells with 10 μM norepinephrine (NE), inositol phosphates were extracted, and separated on AG 1-X8 anion exchange columns (BioRad Labs) in accordance with known techniques (S. Cotecchia et al., Proc. Natl. Acad. Sci. USA 87, 2896 (1990)). Total inositol phosphates were eluted with 1M ammonium formate/0.1M formic acid. […]

NC[C@H](O)c1ccc(O)c(O)c1 [NE, norepinephrine]
Foci No. +NE ([1]; RAT-1 transfected with α1B ADR mutant, 10 μM NE supplemented daily, 5% FBS, initially transfected cells (Table 1)): 11
Foci No. +NE ([1]; focus derived RAT-1 cell lines, α1B ADR mutant, 10 μM NE, 3 weeks of growth, two clones (Table 2)): > 500
NE Stimulated PI Hydrolysis Rmax (α1B ADR; 10 μM NE, 40 minute, increase of total labeled inositol phosphates over basal, two clones): 758 % increase and 410 % increase
increase in total inositol phosphates following NE stimulation (α1B ADR; focus-derived fibroblasts expressing α1B-ADR): 400 to 800%

From patent US5573908A, “Adrenergic receptor as a proto-oncogene” (Duke University, priority 1993, dated 1996)
